This note sets out measurements from patent US9617253B2, “Molecules having pesticidal utility, and intermediates, compositions, and processes, related thereto” (Dow AgroSciences LLC, priority 2015, dated 2017).

In assay [1] the test system is Beet Armyworm (Spodoptera exigua, LAPHEG). The assay can be described thus: Bioassay on Beet Armyworm (BAW), 128-well diet tray assay. The class given is in vivo. Particulars: 168 h, second instar BAW larvae, 50 μg/cm^2 on artificial diet, 25° C., five to seven days, average of eight wells, read-out: BAW % Control (or Mortality) rating. On the procedure: (§1) Certain molecules disclosed in this document were tested against BAW and CL using procedures described in the following examples. In the reporting of the results, the “BAW & CL Rating Table” was used (See Table Section).
Bioassays on BAW were conducted using a 128-well diet tray assay. One to five second instar BAW larvae were placed in each well (3 mL) of the diet tray that had been previously filled with 1 mL of artificial diet to which 50 μg/cm^2 of the test molecule (dissolved in 50 μL of 90:10 acetone-water mixture) had been applied (to each of eight wells) and then allowed to dry. Trays were covered with a clear self-adhesive cover, vented to allow gas exchange, and held at 25° C., 14:10 light-dark for five to seven days. Percent mortality was recorded for the larvae in each well; activity in the eight wells was then averaged. The results are indicated in the table entitled “Table ABC: Biological Results” (See Table Section).

The subject of assay [2] is Cabbage Looper (Trichoplusia ni, TRIPNI). Nature of the assay: Bioassay on Cabbage Looper (CL), 128-well diet tray assay. The class given is in vivo. Particulars: 168 h, second instar CL larvae, 50 μg/cm^2 on artificial diet, 25° C., five to seven days, average of eight wells, read-out: CL % Control (or Mortality) rating. As for the experimental part:
as §1
Bioassays on CL were conducted using a 128-well diet tray assay. One to five second instar CL larvae were placed in each well (3 mL) of the diet tray that had been previously filled with 1 mL of artificial diet to which 50 μg/cm^2 of the test molecule (dissolved in 50 μL of 90:10 acetone-water mixture) had been applied (to each of eight wells) and then allowed to dry. Trays were covered with a clear self-adhesive cover, vented to allow gas exchange, and held at 25° C., 14:10 light-dark for five to seven days. Percent mortality was recorded for the larvae in each well; activity in the eight wells was then averaged. The results are indicated in the table entitled “Table ABC: Biological Results” (See Table Section).

Regarding `COc1cc(OCc2ncn(-c3ccc(OC(F)(F)F)cc3)n2)ccc1NC(=O)/N=C1\SCC(=O)N1c1cc(C)ccc1C(C)C` [F32, (Z)-1-(3-(2-Isopropyl-5-methylphenyl)-4-oxothiazolidin-2-ylidene)-3-(2-methoxy-4-((1-(4-(trifluoromethoxy)phenyl)-1H-1,2,4-triazol-3-yl)methoxy)phenyl)urea], the mortality at 50 µg/cm2 in assay [1] and in assay [2] was 50 to 100% in each case.
For the compound `COCc1ccc(C)cc1N1C(=O)CS/C1=N\C(=O)Nc1cc(F)c(OCc2ncn(-c3ccc(OC(F)(F)F)cc3)n2)c(F)c1` [F43, (Z)-1-(3,5-Difluoro-4-((1-(4-(trifluoromethoxy)phenyl)-1H-1,2,4-triazol-3-yl)methoxy)phenyl)-3-(3-(2-(methoxymethyl)-5-methylphenyl)-4-oxothiazolidin-2-ylidene)urea], the mortality at 50 µg/cm2 in assay [1] and in assay [2] was 50 to 100% in each case.
For `COCc1ccc(C)cc1N1C(=O)CS/C1=N\C(=O)Nc1ccc(OCc2ncn(-c3ccc(OC(F)(F)F)cc3)n2)c(Cl)c1` [F40, (Z)-1-(3-Chloro-4-((1-(4-(trifluoromethoxy)phenyl)-1H-1,2,4-triazol-3-yl)methoxy)phenyl)-3-(3-(2-(methoxymethyl)-5-methylphenyl)-4-oxothiazolidin-2-ylidene)urea], the mortality at 50 µg/cm2 in assay [1] and in assay [2] was 50 to 100% in each case.
Consider `CCCc1ccc(C)cc1N1C(=O)CS/C1=N\C(=O)Nc1ccc(OCc2ncn(-c3ccc(OC(F)(F)F)cc3)n2)cc1Cl` [F30, (Z)-1-(2-Chloro-4-((1-(4-(trifluoromethoxy)phenyl)-1H-1,2,4-triazol-3-yl)methoxy)phenyl)-3-(3-(5-methyl-2-propylphenyl)-4-oxothiazolidin-2-ylidene)urea], for which the mortality at 50 µg/cm2 in assay [1] and in assay [2] was 50 to 100% throughout.
`CCCc1ccc(C)cc1N1C(=O)CS/C1=N\C(=O)Nc1ccc(COc2ncn(-c3ccc(OC(F)(F)F)cc3)n2)c(OC)c1` [F10, (Z)-1-(3-Methoxy-4-(((1-(4-(trifluoromethoxy)phenyl)-1H-1,2,4-triazol-3-yl)oxy)methyl)phenyl)-3-(3-(5-methyl-2-propylphenyl)-4-oxothiazolidin-2-ylidene)urea]: the mortality at 50 µg/cm2 in assay [1] and in assay [2] was 0% in each case.
For `Cc1ccc(C(C)C)c(N2C(=O)CS/C2=N\C(=O)Nc2ccc(OCc3ncn(-c4ccc(OC(F)(F)F)cc4)n3)cc2Cl)c1` [F29, (Z)-1-(2-Chloro-4-((1-(4-(trifluoromethoxy)phenyl)-1H-1,2,4-triazol-3-yl)methoxy)phenyl)-3-(3-(2-isopropyl-5-methylphenyl)-4-oxothiazolidin-2-ylidene)urea], the mortality at 50 µg/cm2 in assay [1] and in assay [2] was 50 to 100% in each case.
For `Cc1ccc(C(C)C)c(N2C(=O)CS/C2=N\C(=O)Nc2ccc(OCc3ncn(-c4ccc(OC(F)(F)F)cc4)n3)c(F)c2)c1` [F35, (Z)-1-(3-Fluoro-4-((1-(4-(trifluoromethoxy)phenyl)-1H-1,2,4-triazol-3-yl)methoxy)phenyl)-3-(3-(2-isopropyl-5-methylphenyl)-4-oxothiazolidin-2-ylidene)urea], the mortality at 50 µg/cm2 in assay [1] and in assay [2] was 50 to 100% throughout.
Turning to `CCCc1ccc(C)cc1N1C(=O)CS/C1=N\C(=O)Nc1ccc(COc2ncn(-c3ccc(OC(F)(F)F)cc3)n2)cc1F` [F6, (Z)-1-(2-Fluoro-4-(((1-(4-(trifluoromethoxy)phenyl)-1H-1,2,4-triazol-3-yl)oxy)methyl)phenyl)-3-(3-(5-methyl-2-propylphenyl)-4-oxothiazolidin-2-ylidene)urea], the mortality at 50 µg/cm2 in assay [1] and in assay [2] was 50 to 100% in each case.
`Cc1ccc(C(C)C)c(N2C(=O)CS/C2=N\C(=O)Nc2ccc(OCc3ncn(-c4ccc(OC(F)(F)F)cc4)n3)nc2)c1` [F44, (Z)-1-(3-(2-Isopropyl-5-methylphenyl)-4-oxothiazolidin-2-ylidene)-3-(6-((1-(4-(trifluoromethoxy)phenyl)-1H-1,2,4-triazol-3-yl)methoxy)pyridin-3-yl)urea]: the mortality at 50 µg/cm2 in assay [1] and in assay [2] was 50 to 100% in each case.
In the case of `COCc1ccc(C)cc1N1C(=O)CS/C1=N\C(=O)Nc1ccc(OCc2ncn(-c3ccc(OC(F)(F)F)cc3)n2)nc1` [F46, (Z)-1-(3-(2-(Methoxymethyl)-5-methylphenyl)-4-oxothiazolidin-2-ylidene)-3-(6-((1-(4-(trifluoromethoxy)phenyl)-1H-1,2,4-triazol-3-yl)methoxy)pyridin-3-yl)urea], the mortality at 50 µg/cm2 in assay [1] was 0 to 50%; in assay [2], 0%.
Turning to `COCc1ccc(C)cc1N1C(=O)CS/C1=N\C(=O)Nc1c(F)cc(OCc2ncn(-c3ccc(OC(F)(F)F)cc3)n2)cc1F` [F19, (Z)-1-(2,6-Difluoro-4-((1-(4-(trifluoromethoxy)phenyl)-1H-1,2,4-triazol-3-yl)methoxy)phenyl)-3-(3-(2-(methoxymethyl)-5-methylphenyl)-4-oxothiazolidin-2-ylidene)urea], the mortality at 50 µg/cm2 in assay [1] and in assay [2] was 50 to 100% throughout.
With `COCc1ccc(C)cc1N1C(=O)CS/C1=N\C(=O)Nc1ccc(OCc2ncn(-c3ccc(OC(F)(F)F)cc3)n2)cc1OC` [F34, (Z)-1-(2-Methoxy-4-((1-(4-(trifluoromethoxy)phenyl)-1H-1,2,4-triazol-3-yl)methoxy)phenyl)-3-(3-(2-(methoxymethyl)-5-methylphenyl)-4-oxothiazolidin-2-ylidene)urea], the mortality at 50 µg/cm2 in assay [1] and in assay [2] was 50 to 100% each time.
For the compound `COCc1ccc(C)cc1N1C(=O)CS/C1=N\C(=O)Nc1ccc(COc2ncn(-c3ccc(OC(F)(F)F)cc3)n2)c(OC)c1` [F11, (Z)-1-(3-Methoxy-4-(((1-(4-(trifluoromethoxy)phenyl)-1H-1,2,4-triazol-3-yl)oxy)methyl)phenyl)-3-(3-(2-(methoxymethyl)-5-methylphenyl)-4-oxothiazolidin-2-ylidene)urea], the mortality at 50 µg/cm2 in assay [1] and in assay [2] was 0% each time.
On to `CCCc1ccc(C)cc1N1C(=O)CS/C1=N\C(=O)Nc1ccc(COc2ncn(-c3ccc(OC(F)(F)F)cc3)n2)c(F)c1` [F7, (Z)-1-(3-Fluoro-4-(((1-(4-(trifluoromethoxy)phenyl)-1H-1,2,4-triazol-3-yl)oxy)methyl)phenyl)-3-(3-(5-methyl-2-propylphenyl)-4-oxothiazolidin-2-ylidene)urea], for which the mortality at 50 µg/cm2 in assay [1] and in assay [2] was 50 to 100% throughout.
`CCCc1ccc(C)cc1N1C(=O)CS/C1=N\C(=O)Nc1ccc(COc2ncn(-c3ccc(OC(F)(F)F)cc3)n2)cn1` [F13, (Z)-1-(3-(5-Methyl-2-propylphenyl)-4-oxothiazolidin-2-ylidene)-3-(5-(((1-(4-(trifluoromethoxy)phenyl)-1H-1,2,4-triazol-3-yl)oxy)methyl)pyridin-2-yl)urea]: the mortality at 50 µg/cm2 in assay [1] and in assay [2] was 50 to 100% each time.
Consider `Cc1ccc(C(C)C)c(N2C(=O)CS/C2=N\C(=O)Nc2ccc(COc3ncn(-c4ccc(OC(F)(F)F)cc4)n3)cn2)c1` [F14, (Z)-1-(3-(2-Isopropyl-5-methylphenyl)-4-oxothiazolidin-2-ylidene)-3-(5-(((1-(4-(trifluoromethoxy)phenyl)-1H-1,2,4-triazol-3-yl)oxy)methyl)pyridin-2-yl)urea], for which the mortality at 50 µg/cm2 in assay [1] and in assay [2] was 50 to 100% in each case.
